Key:
[1] = Mouse pharmacokinetic study (iv clearance, oral exposure); assay type: in vivo; design: key to Mouse po DNAUC: ‘poor’ for DNAUC ≦101 ng·h/mL/mg/kg; ‘good’ for DNAUC >101 ng·h/mL/mg/kg; In cases where both ‘poor’ and ‘good’ oral exposures were observed, a designation of ‘mixed’ is utilized; details: for Mouse iv CI: in vivo clearance, average of 1 to 4 animals; for Mouse po DNAUC: dose-normalized AUC, 2-3 animals per experiment
Experimental: (§1) Mouse and rat pharmacokinetic studies were performed generally as described in Xiang et al. (Preclinical drug metabolism and pharmacokinetic evaluation of GW844520, a novel mitochondrial electron transport inhibitor. H Xiang, J McSurdy-Freed, G Subbanagounder, E Hugger, R Bambal, C Han, S Ferrar, D Gargallo and CB Davis. (2006) Journal of Pharmaceutical Sciences, 95:2657-2672) and Davis et al. (Comparative preclinical drug metabolism and pharmacokinetic evaluation of novel 4-aminoquinoline anti-malarials. C B Davis, R Bambal, G S Moorthy, E Hugger, H Xiang, B Kevin Park, A E Shone, P M O'Neill and S A Ward (2009) Journal of Pharmaceutical Sciences, 98:362-377) with the following exceptions. For some mouse studies, cannulated animals were used and serial blood samples were collected from the individuals (n=2/compound/route of administration) as opposed to using a composite study design. In some iv rat studies, drugs were infused for 1 or 2 h and a single blood sample collected to estimate clearance assuming steady-state conditions (n=2/compound). This assay was employed as an initial PK screen to prioritize compounds for further study.
(§2) Rodent pharmacokinetic (PK) data were collected on the exemplified compounds according to the methods described above. In vivo clearance (Cl) data are reported as the average of 1 to 4 animals across 1 to 2 experiments and are categorized as follows. In rats, a ‘low’ clearance is designated as <17 mL/min/kg, a ‘moderate’ clearance is designated as 17-39 mL/min/kg, and a ‘high’ clearance is designated as >39 mL/min/kg. In mice, a ‘low’ clearance is designated as <30 mL/min/kg, a ‘moderate’ clearance is designated as 30-70 mL/min/kg, and a ‘high’ clearance is designated as >70 mL/min/kg. In vivo oral exposure (po) data, reported as average dose-normalized AUCs (DNAUC) per experiment of 2-3 animals, are categorized as ‘poor’ for DNAUC ≦101 ng·h/mL/mg/kg and ‘good’ for DNAUC >101 ng·h/mL/mg/kg. When multiple experiments were performed under different conditions, the totality of the data was considered. In cases where both ‘poor’ and ‘good’ oral exposures were observed, a designation of ‘mixed’ is utilized to represent mixed and unoptimized results.

[2] = Rat pharmacokinetic study (iv clearance, oral exposure); assay type: in vivo; details: for Rat iv CI: in vivo clearance, average of 1 to 4 animals; for Rat po DNAUC: dose-normalized AUC, 2-3 animals per experiment
Experimental: as §1, §2

SMILES | Mouse iv CI [1] | Mouse po DNAUC [1] | Rat iv CI [2] | Rat po DNAUC [2]
O=C(C1CC1)N1CC[C@@H](Cc2n[nH]c(=O)n2-c2ccc(-c3ccc4cccnc4c3)cc2F)C1 [#124 from WO2011/103546A1, 5-{[(3S)-1-(cyclopropylcarbonyl)-3-pyrrolidinyl]methyl}-4-[2-fluoro-4-(7-quinolinyl)phenyl]-2,4-dihydro-3H-1,2,4-triazol-3-one, reference compound] | moderate (a ‘moderate’ clearance is designated as 30-70 mL/min/kg) | poor (‘poor’ for DNAUC ≦101 ng·h/mL/mg/kg) | high (a ‘high’ clearance is designated as >39 mL/min/kg) | poor (‘poor’ for DNAUC ≦101 ng·h/mL/mg/kg)
CCC(=O)N1CC[C@@H](Cc2n[nH]c(=O)n2-c2ccc(-c3ccc4cccnc4c3)cc2F)C1 [#196 from WO2011/103546A1, 4-[2-fluoro-4-(7-quinolinyl)phenyl]-5-{[(3S)-1-propanoyl-3-pyrrolidinyl]methyl}-2,4-dihydro-3H-1,2,4-triazol-3-one, reference compound] | moderate (a ‘moderate’ clearance is designated as 30-70 mL/min/kg) | poor (‘poor’ for DNAUC ≦101 ng·h/mL/mg/kg) | moderate (a ‘moderate’ clearance is designated as 17-39 mL/min/kg) | poor (‘poor’ for DNAUC ≦101 ng·h/mL/mg/kg)
Cc1cnc2cc(-c3ccc(-n4c(C[C@@H]5CCN(C(=O)C6CC6)C5)n[nH]c4=O)c(F)c3)ccc2c1 [Example 1, (S)-3-((1-(cyclopropanecarbonyl)pyrrolidin-3-yl)methyl)-4-(2-fluoro-4-(3-methylquinolin-7-yl)phenyl)-1H-1,2,4-triazol-5(4H)-one] | low (In mice, a ‘low’ clearance is designated as <30 mL/min/kg) | good (‘good’ for DNAUC >101 ng·h/mL/mg/kg) | moderate (a ‘moderate’ clearance is designated as 17-39 mL/min/kg) | poor (‘poor’ for DNAUC ≦101 ng·h/mL/mg/kg)
O=C(C1CC1)N1CC[C@@H](Cc2n[nH]c(=O)n2-c2ccc(-c3ccc4cc(Cl)cnc4c3)cc2F)C1 [Example 2, (S)-4-(4-(3-chloroquinolin-7-yl)-2-fluorophenyl)-3-((1-(cyclopropanecarbonyl)pyrrolidin-3-yl)methyl)-1H-1,2,4-triazol-5(4H)-one] | low (In mice, a ‘low’ clearance is designated as <30 mL/min/kg) | good (‘good’ for DNAUC >101 ng·h/mL/mg/kg) | moderate (a ‘moderate’ clearance is designated as 17-39 mL/min/kg) | good (‘good’ for DNAUC >101 ng·h/mL/mg/kg)
O=C(C1CC1)N1CC[C@@H](Cc2n[nH]c(=O)n2-c2ccc(-c3ccc4cc(F)cnc4c3)cc2F)C1 [Example 3, (S)-3-((1-(cyclopropanecarbonyl)pyrrolidin-3-yl)methyl)-4-(2-fluoro-4-(3-fluoroquinolin-7-yl)phenyl)-1H-1,2,4-triazol-5(4H)-one] | – | – | moderate (a ‘moderate’ clearance is designated as 17-39 mL/min/kg) | –
CCC(=O)N1CC[C@@H](Cc2n[nH]c(=O)n2-c2ccc(-c3ccc4cc(F)cnc4c3)cc2F)C1 [Example 4, (S)-4-(2-fluoro-4-(3-fluoroquinolin-7-yl)phenyl)-3-((1-propionylpyrrolidin-3-yl)methyl)-1H-1,2,4-triazol-5(4H)-one] | low (In mice, a ‘low’ clearance is designated as <30 mL/min/kg) | good (‘good’ for DNAUC >101 ng·h/mL/mg/kg) | low (In rats, a ‘low’ clearance is designated as <17 mL/min/kg) | poor (‘poor’ for DNAUC ≦101 ng·h/mL/mg/kg)
CCC(=O)N1CC[C@@H](Cc2n[nH]c(=O)n2-c2ccc(-c3ccc4cc(C)cnc4c3)cc2F)C1 [Example 5, (S)-4-(2-fluoro-4-(3-methylquinolin-7-yl)phenyl)-3-((1-propionylpyrrolidin-3-yl)methyl)-1H-1,2,4-triazol-5(4H)-one] | low (In mice, a ‘low’ clearance is designated as <30 mL/min/kg) | mixed | low (In rats, a ‘low’ clearance is designated as <17 mL/min/kg) | good (‘good’ for DNAUC >101 ng·h/mL/mg/kg)
CCC(=O)N1CC[C@@H](Cc2n[nH]c(=O)n2-c2ccc(-c3ccc4cc(Cl)cnc4c3)cc2F)C1 [Example 6, (S)-4-(4-(3-chloroquinolin-7-yl)-2-fluorophenyl)-3-((1-propionylpyrrolidin-3-yl)methyl)-1H-1,2,4-triazol-5(4H)-one] | low (In mice, a ‘low’ clearance is designated as <30 mL/min/kg) | mixed | moderate (a ‘moderate’ clearance is designated as 17-39 mL/min/kg) | good (‘good’ for DNAUC >101 ng·h/mL/mg/kg)
CCC(=O)N1CC[C@@H](Cc2nn(C)c(=O)n2-c2ccc(-c3ccc4cc(C)cnc4c3)cc2F)C1 [Example 7, (S)-4-(2-fluoro-4-(3-methylquinolin-7-yl)phenyl)-1-methyl-3-((1-propionylpyrrolidin-3-yl)methyl)-1H-1,2,4-triazol-5(4H)-one] | low (In mice, a ‘low’ clearance is designated as <30 mL/min/kg) | good (‘good’ for DNAUC >101 ng·h/mL/mg/kg) | low (In rats, a ‘low’ clearance is designated as <17 mL/min/kg) | good (‘good’ for DNAUC >101 ng·h/mL/mg/kg)
CCC(=O)N1CC[C@@H](Cc2nn(C)c(=O)n2-c2ccc(-c3ccc4cc(Cl)cnc4c3)cc2F)C1 [Example 8, (S)-4-(4-(3-chloroquinolin-7-yl)-2-fluorophenyl)-1-methyl-3-((1-propionylpyrrolidin-3-yl)methyl)-1H-1,2,4-triazol-5(4H)-one] | low (In mice, a ‘low’ clearance is designated as <30 mL/min/kg) | good (‘good’ for DNAUC >101 ng·h/mL/mg/kg) | low (In rats, a ‘low’ clearance is designated as <17 mL/min/kg) | good (‘good’ for DNAUC >101 ng·h/mL/mg/kg)
Cn1nc(C[C@@H]2CCN(C(=O)C3CC3)C2)n(-c2ccc(-c3ccc4cc(Cl)cnc4c3)cc2F)c1=O [Example 9, (S)-4-(4-(3-chloroquinolin-7-yl)-2-fluorophenyl)-3-((1-(cyclopropanecarbonyl)pyrrolidin-3-yl)methyl)-1-methyl-1H-1,2,4-triazol-5(4H)-one] | low (In mice, a ‘low’ clearance is designated as <30 mL/min/kg) | – | moderate (a ‘moderate’ clearance is designated as 17-39 mL/min/kg) | good (‘good’ for DNAUC >101 ng·h/mL/mg/kg)
CCC(=O)N1CC[C@@H](Cc2nn(C)c(=O)n2-c2ccc(-c3ccc4cc(F)cnc4c3)cc2F)C1 [Example 10, (S)-4-(2-fluoro-4-(3-fluoroquinolin-7-yl)phenyl)-1-methyl-3-((1-propionylpyrrolidin-3-yl)methyl)-1H-1,2,4-triazol-5(4H)-one] | low (In mice, a ‘low’ clearance is designated as <30 mL/min/kg) | – | low (In rats, a ‘low’ clearance is designated as <17 mL/min/kg) | –
